ChEMBL document CHEMBL2034905, “Synthesis of benzimidazolyl-1,3,4-oxadiazol-2ylthio-N-phenyl (benzothiazolyl) acetamides as antibacterial, antifungal and antituberculosis agents” (Eur J Med Chem, 2012)
≈ marks a conversion by molar mass, not a printed value.

Tests used:
Shigella flexneri [1] = experiment: Antibacterial activity against Shigella flexneri MTCC 1457 by agar streak dilution method; type: functional
Staphylococcus aureus [2] = experiment: Antibacterial activity against Staphylococcus aureus MTCC 96 at 100 ug/disc by paper disc diffusion technique; type: functional; conditions: read-out: IZ
Klebsiella pneumoniae [3] = experiment: Antibacterial activity against Klebsiella pneumoniae MTCC 109 at 100 ug/disc by paper disc diffusion technique; type: functional; conditions: read-out: IZ
Bacillus cereus [4] = experiment: Antibacterial activity against Bacillus cereus MTCC 430 by agar streak dilution method; type: functional
Pseudomonas aeruginosa [5] = experiment: Antibacterial activity against Pseudomonas aeruginosa MTCC 741 at 100 ug/disc by paper disc diffusion technique; type: functional; conditions: read-out: IZ
Bacillus cereus [6] = experiment: Antibacterial activity against Bacillus cereus MTCC 430 at 100 ug/disc by paper disc diffusion technique; type: functional; conditions: read-out: IZ
Salmonella typhi [7] = experiment: Antibacterial activity against Salmonella typhi MTCC 733 by agar streak dilution method; type: functional, Salmonella enterica subsp. enterica serovar Typhi; conditions: Salmonella enterica
Klebsiella pneumoniae [8] = experiment: Antibacterial activity against Klebsiella pneumoniae MTCC 109 by agar streak dilution method; type: functional
Aspergillus fumigatus [9] = experiment: Antifungal activity against Aspergillus fumigatus MTCC 343 by agar streak dilution method; type: functional
Candida albicans [10] = experiment: Antifungal activity against Candida albicans MTCC 183 by agar streak dilution method; type: functional
Candida albicans [11] = experiment: Antifungal activity against Candida albicans MTCC 183 at 100 ug/disc by paper disc diffusion technique; type: functional; conditions: read-out: IZ
Shigella flexneri [12] = experiment: Antibacterial activity against Shigella flexneri MTCC 1457 at 100 ug/disc by paper disc diffusion technique; type: functional; conditions: read-out: IZ
Aspergillus niger [13] = experiment: Antifungal activity against Aspergillus niger MTCC 282 at 100 ug/disc by paper disc diffusion technique; type: functional; conditions: read-out: IZ
[14] = tested on: Mycobacterium tuberculosis; experiment: Antituberculosis activity against Mycobacterium tuberculosis H37Rv by BACTEC MGIT method; type: functional
Aspergillus niger [15] = experiment: Antifungal activity against Aspergillus niger MTCC 282 by agar streak dilution method; type: functional
Aspergillus clavatus [16] = experiment: Antifungal activity against Aspergillus clavatus MTCC 1323 by agar streak dilution method; type: functional
Staphylococcus aureus [17] = experiment: Antibacterial activity against Staphylococcus aureus MTCC 96 by agar streak dilution method; type: functional
[18] = tested on: Mycobacterium tuberculosis; experiment: Antituberculosis activity against Mycobacterium tuberculosis H37Rv by Lowenstein-Jensen method; type: functional
Aspergillus fumigatus [19] = experiment: Antifungal activity against Aspergillus fumigatus MTCC 343 at 100 ug/disc by paper disc diffusion technique; type: functional; conditions: read-out: IZ
[20] = tested on: Mycobacterium tuberculosis; experiment: Antituberculosis activity against Mycobacterium tuberculosis H37Rv at 6.25 ug/ml by Lowenstein-Jensen method; type: functional
Salmonella typhi [21] = experiment: Antibacterial activity against Salmonella typhi MTCC 733 at 100 ug/disc by paper disc diffusion technique; type: functional, Salmonella enterica subsp. enterica serovar Typhi; conditions: Salmonella enterica, read-out: IZ
Aspergillus clavatus [22] = experiment: Antifungal activity against Aspergillus clavatus MTCC 1323 at 100 ug/disc by paper disc diffusion technique; type: functional; conditions: read-out: IZ
[23] = Lipophilicity, log P of the compound; type: physicochemical; conditions: octanol/water
Pseudomonas aeruginosa [24] = experiment: Antibacterial activity against Pseudomonas aeruginosa MTCC 741 by agar streak dilution method; type: functional
Proteus vulgaris [25] = experiment: Antibacterial activity against Proteus vulgaris MTCC 1771 by agar streak dilution method; type: functional
Proteus vulgaris [26] = experiment: Antibacterial activity against Proteus vulgaris MTCC 1771 at 100 ug/disc by paper disc diffusion technique; type: functional; conditions: read-out: IZ
Escherichia coli [27] = experiment: Antibacterial activity against Escherichia coli MTCC 739 by agar streak dilution method; type: functional
Escherichia coli [28] = experiment: Antibacterial activity against Escherichia coli MTCC 739 at 100 ug/disc by paper disc diffusion technique; type: functional; conditions: read-out: IZ

N#Cc1ccc2nc(NC(=O)CSc3nnc(Cn4cnc5ccccc54)o3)sc2c1
MIC (Shigella flexneri [1]): 50 µg/mL (≈ 112 µM)
zone of inhibition at 100 µg/disc (Staphylococcus aureus [2]): 24 mm
zone of inhibition at 100 µg/disc (Klebsiella pneumoniae [3]): 25 mm
MIC (Bacillus cereus [4]): 50 µg/mL (≈ 112 µM)
zone of inhibition at 100 µg/disc (Pseudomonas aeruginosa [5]): 15 mm
zone of inhibition at 100 µg/disc (Bacillus cereus [6]): 22 mm
MIC (Salmonella typhi [7]): 100 µg/mL (≈ 223 µM)
MIC (Klebsiella pneumoniae [8]): 25 µg/mL (≈ 55.9 µM)
MIC (Aspergillus fumigatus [9]): 50 µg/mL (≈ 112 µM)
MIC (Candida albicans [10]): 100 µg/mL (≈ 223 µM)
zone of inhibition at 100 µg/disc (Candida albicans [11]): 13 mm
zone of inhibition at 100 µg/disc (Shigella flexneri [12]): 21 mm
zone of inhibition at 100 µg/disc (Aspergillus niger [13]): 18 mm
MIC [14]: > 6.25 µg/mL
MIC (Aspergillus niger [15]): 50 µg/mL (≈ 112 µM)
MIC (Aspergillus clavatus [16]): 100 µg/mL (≈ 223 µM)
MIC (Staphylococcus aureus [17]): 6.25 µg/mL (≈ 14 µM)
MIC [18]: 100 µg/mL (≈ 223 µM)
zone of inhibition at 100 µg/disc (Aspergillus fumigatus [19]): 22 mm
inhibition at 6.25 µg/mL [20]: 95%
zone of inhibition at 100 µg/disc (Salmonella typhi [21]): 17 mm
zone of inhibition at 100 µg/disc (Aspergillus clavatus [22]): 18 mm
logP [23]: 3.72
MIC (Pseudomonas aeruginosa [24]): 50 µg/mL (≈ 112 µM)
MIC (Proteus vulgaris [25]): 50 µg/mL (≈ 112 µM)
zone of inhibition at 100 µg/disc (Proteus vulgaris [26]): 19 mm
MIC (Escherichia coli [27]): 25 µg/mL (≈ 55.9 µM)
zone of inhibition at 100 µg/disc (Escherichia coli [28]): 24 mm

CC(=O)Nc1ccc2nc(NC(=O)CSc3nnc(Cn4cnc5ccccc54)o3)sc2c1
MIC (Shigella flexneri [1]): 100 µg/mL (≈ 209 µM)
zone of inhibition at 100 µg/disc (Staphylococcus aureus [2]): 19 mm
zone of inhibition at 100 µg/disc (Klebsiella pneumoniae [3]): 20 mm
MIC (Bacillus cereus [4]): 100 µg/mL (≈ 209 µM)
zone of inhibition at 100 µg/disc (Pseudomonas aeruginosa [5]): < 10 mm
zone of inhibition at 100 µg/disc (Bacillus cereus [6]): 16 mm
MIC (Salmonella typhi [7]): 100 µg/mL (≈ 209 µM)
MIC (Klebsiella pneumoniae [8]): 50 µg/mL (≈ 104 µM)
MIC (Aspergillus fumigatus [9]): 100 µg/mL (≈ 209 µM)
MIC (Candida albicans [10]): 50 µg/mL (≈ 104 µM)
zone of inhibition at 100 µg/disc (Candida albicans [11]): 23 mm
zone of inhibition at 100 µg/disc (Shigella flexneri [12]): 16 mm
zone of inhibition at 100 µg/disc (Aspergillus niger [13]): 24 mm
MIC [14]: > 6.25 µg/mL
MIC (Aspergillus niger [15]): 12.5 µg/mL (≈ 26.1 µM)
MIC (Aspergillus clavatus [16]): 50 µg/mL (≈ 104 µM)
MIC (Staphylococcus aureus [17]): 50 µg/mL (≈ 104 µM)
MIC [18]: 50 µg/mL (≈ 104 µM)
zone of inhibition at 100 µg/disc (Aspergillus fumigatus [19]): < 10 mm
inhibition at 6.25 µg/mL [20]: 98%
zone of inhibition at 100 µg/disc (Salmonella typhi [21]): 16 mm
zone of inhibition at 100 µg/disc (Aspergillus clavatus [22]): 23 mm
logP [23]: 2.6
MIC (Pseudomonas aeruginosa [24]): 100 µg/mL (≈ 209 µM)
MIC (Proteus vulgaris [25]): 12.5 µg/mL (≈ 26.1 µM)
zone of inhibition at 100 µg/disc (Proteus vulgaris [26]): 24 mm
MIC (Escherichia coli [27]): 50 µg/mL (≈ 104 µM)
zone of inhibition at 100 µg/disc (Escherichia coli [28]): 20 mm

O=C(CSc1nnc(Cn2cnc3ccccc32)o1)Nc1nc2ccccc2s1
MIC (Shigella flexneri [1]): 100 µg/mL (≈ 237 µM)
zone of inhibition at 100 µg/disc (Staphylococcus aureus [2]): 15 mm
zone of inhibition at 100 µg/disc (Klebsiella pneumoniae [3]): < 10 mm
MIC (Bacillus cereus [4]): 100 µg/mL (≈ 237 µM)
zone of inhibition at 100 µg/disc (Pseudomonas aeruginosa [5]): 12 mm
zone of inhibition at 100 µg/disc (Bacillus cereus [6]): 14 mm
MIC (Salmonella typhi [7]): 100 µg/mL (≈ 237 µM)
MIC (Klebsiella pneumoniae [8]): 100 µg/mL (≈ 237 µM)
MIC (Aspergillus fumigatus [9]): 100 µg/mL (≈ 237 µM)
MIC (Candida albicans [10]): 100 µg/mL (≈ 237 µM)
zone of inhibition at 100 µg/disc (Candida albicans [11]): 13 mm
zone of inhibition at 100 µg/disc (Shigella flexneri [12]): 13 mm
zone of inhibition at 100 µg/disc (Aspergillus niger [13]): < 10 mm
MIC [14]: > 6.25 µg/mL
MIC (Aspergillus niger [15]): 100 µg/mL (≈ 237 µM)
MIC (Aspergillus clavatus [16]): 100 µg/mL (≈ 237 µM)
MIC (Staphylococcus aureus [17]): 50 µg/mL (≈ 118 µM)
MIC [18]: 500 µg/mL (≈ 1180 µM)
zone of inhibition at 100 µg/disc (Aspergillus fumigatus [19]): < 10 mm
inhibition at 6.25 µg/mL [20]: 94%
zone of inhibition at 100 µg/disc (Salmonella typhi [21]): < 10 mm
zone of inhibition at 100 µg/disc (Aspergillus clavatus [22]): < 10 mm
logP [23]: 3.69
MIC (Pseudomonas aeruginosa [24]): 100 µg/mL (≈ 237 µM)
MIC (Proteus vulgaris [25]): 100 µg/mL (≈ 237 µM)
zone of inhibition at 100 µg/disc (Proteus vulgaris [26]): 17 mm
MIC (Escherichia coli [27]): 100 µg/mL (≈ 237 µM)
zone of inhibition at 100 µg/disc (Escherichia coli [28]): 15 mm

O=C(CSc1nnc(Cn2cnc3ccccc32)o1)Nc1nc2ccc(Br)cc2s1
MIC (Shigella flexneri [1]): 12.5 µg/mL (≈ 24.9 µM)
zone of inhibition at 100 µg/disc (Staphylococcus aureus [2]): 26 mm
zone of inhibition at 100 µg/disc (Klebsiella pneumoniae [3]): 14 mm
MIC (Bacillus cereus [4]): 25 µg/mL (≈ 49.9 µM)
zone of inhibition at 100 µg/disc (Pseudomonas aeruginosa [5]): 23 mm
zone of inhibition at 100 µg/disc (Bacillus cereus [6]): 24 mm
MIC (Salmonella typhi [7]): 25 µg/mL (≈ 49.9 µM)
MIC (Klebsiella pneumoniae [8]): 100 µg/mL (≈ 199 µM)
MIC (Aspergillus fumigatus [9]): 50 µg/mL (≈ 99.7 µM)
MIC (Candida albicans [10]): 100 µg/mL (≈ 199 µM)
zone of inhibition at 100 µg/disc (Candida albicans [11]): 17 mm
zone of inhibition at 100 µg/disc (Shigella flexneri [12]): 23 mm
zone of inhibition at 100 µg/disc (Aspergillus niger [13]): 19 mm
MIC [14]: > 6.25 µg/mL
MIC (Aspergillus niger [15]): 50 µg/mL (≈ 99.7 µM)
MIC (Aspergillus clavatus [16]): 50 µg/mL (≈ 99.7 µM)
MIC (Staphylococcus aureus [17]): 3.12 µg/mL (≈ 6.22 µM)
MIC [18]: 25 µg/mL (≈ 49.9 µM)
zone of inhibition at 100 µg/disc (Aspergillus fumigatus [19]): 21 mm
inhibition at 6.25 µg/mL [20]: 99%
zone of inhibition at 100 µg/disc (Salmonella typhi [21]): 24 mm
zone of inhibition at 100 µg/disc (Aspergillus clavatus [22]): 20 mm
logP [23]: 4.52
MIC (Pseudomonas aeruginosa [24]): 25 µg/mL (≈ 49.9 µM)
MIC (Proteus vulgaris [25]): 50 µg/mL (≈ 99.7 µM)
zone of inhibition at 100 µg/disc (Proteus vulgaris [26]): 20 mm
MIC (Escherichia coli [27]): 50 µg/mL (≈ 99.7 µM)
zone of inhibition at 100 µg/disc (Escherichia coli [28]): 19 mm

O=C(CSc1nnc(Cn2cnc3ccccc32)o1)Nc1ccc(Cl)cc1
MIC (Shigella flexneri [1]): 12.5 µg/mL (≈ 31.3 µM)
zone of inhibition at 100 µg/disc (Staphylococcus aureus [2]): 15 mm
zone of inhibition at 100 µg/disc (Klebsiella pneumoniae [3]): 21 mm
MIC (Bacillus cereus [4]): 50 µg/mL (≈ 125 µM)
zone of inhibition at 100 µg/disc (Pseudomonas aeruginosa [5]): 26 mm
zone of inhibition at 100 µg/disc (Bacillus cereus [6]): 11 mm
MIC (Salmonella typhi [7]): 100 µg/mL (≈ 250 µM)
MIC (Klebsiella pneumoniae [8]): 50 µg/mL (≈ 125 µM)
MIC (Aspergillus fumigatus [9]): 100 µg/mL (≈ 250 µM)
MIC (Candida albicans [10]): 100 µg/mL (≈ 250 µM)
zone of inhibition at 100 µg/disc (Candida albicans [11]): 14 mm
zone of inhibition at 100 µg/disc (Shigella flexneri [12]): 22 mm
zone of inhibition at 100 µg/disc (Aspergillus niger [13]): < 10 mm
MIC [14]: > 6.25 µg/mL
MIC (Aspergillus niger [15]): 100 µg/mL (≈ 250 µM)
MIC (Aspergillus clavatus [16]): 100 µg/mL (≈ 250 µM)
MIC (Staphylococcus aureus [17]): 50 µg/mL (≈ 125 µM)
MIC [18]: 25 µg/mL (≈ 62.5 µM)
zone of inhibition at 100 µg/disc (Aspergillus fumigatus [19]): 16 mm
inhibition at 6.25 µg/mL [20]: 98%
zone of inhibition at 100 µg/disc (Salmonella typhi [21]): 17 mm
zone of inhibition at 100 µg/disc (Aspergillus clavatus [22]): 14 mm
MIC (Pseudomonas aeruginosa [24]): 12.5 µg/mL (≈ 31.3 µM)
MIC (Proteus vulgaris [25]): 50 µg/mL (≈ 125 µM)
zone of inhibition at 100 µg/disc (Proteus vulgaris [26]): 20 mm
MIC (Escherichia coli [27]): 100 µg/mL (≈ 250 µM)
zone of inhibition at 100 µg/disc (Escherichia coli [28]): 15 mm
